Values belong to the compound of their own block, whether it stands above or below them.
Biological target: T1, STEP (280–566) catalytic domain (Homo sapiens, UniProt P54829)
T1 construct: the codon-optimized STEP (280–566) catalytic domains; His tag (pET-15b) (N); made in house; host or cells: E. coli BL21(DE3)
T1 sequence (P54829 280-565 limits assumed): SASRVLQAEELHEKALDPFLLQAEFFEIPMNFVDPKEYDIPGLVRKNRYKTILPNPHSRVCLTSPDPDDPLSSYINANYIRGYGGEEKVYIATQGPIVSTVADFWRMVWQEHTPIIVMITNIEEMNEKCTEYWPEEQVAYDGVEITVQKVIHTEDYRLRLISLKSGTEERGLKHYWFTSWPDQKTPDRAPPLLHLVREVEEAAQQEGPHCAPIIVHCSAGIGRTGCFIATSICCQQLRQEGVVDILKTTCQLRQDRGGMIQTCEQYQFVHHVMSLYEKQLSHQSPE
Assay: DiFMUP phosphatase inhibition assay, STEP
Assay type: biochemical
Conditions: for IC50: catalytic domain, DiFMUP at Km (4 μM); for selectivity for SHP2 over STEP: from IC50 values against catalytic domains
Protocol: Selectivity is one of the biggest challenges in PTP inhibitor development. […] Similar to SHP2, we adapted a 384-well plate format DiFMUP assay for recombinant PTP1B and STEP and performed Michaelis–Menten experiments to determine DiFMUP Km values for each phosphatase. IC50 values of our inhibitors for PTP1B and STEP were determined in 10-point dose–response assays with DiFMUP used at the concentration corresponding to the respective Km value. […] Other inhibitors with good relative selectivity for SHP2 included SBI-4668 (13-fold selective over PTP1B; 73-fold selective over STEP) and SBI-3404 (fivefold selective over PTP1B; >71-fold selective over STEP).
Recombinant human full-length SHP2 (1–594) WT and E76K mutants, as well as the SHP2cat (248–527), were expressed and purified as described before ([36], [41]). Recombinant human PTP1B (1–300) and the codon-optimized STEP (280–566) catalytic domains were cloned into PET-15b and expressed as N-His-tagged fusion proteins. For expression, transformed BL21(DE3) cells were grown and induced similar as described for SHP2. Collected cells were resuspended in lysis buffer (25 mM Tris, pH 7.5, 300 mM NaCl, 50 mM imidazole, and 10% glycerol) with 100 mg/l RNaseA and were lysed with two passages using a microfluidizer. The lysate was clarified by centrifugation at 15,000g for 50 min and applied to nickel–nitrilotriacetic acid resin. The column resin was washed, and the PTP1B or STEP protein was eluted in lysis buffer at 300 mM imidazole. The PTP1B or STEP protein was further purified by S75 size-exclusion chromatography in 50 mM Tris, pH 7.5, 50 mM NaCl. The eluted peak fractions were supplemented with tris(2-carboxyethyl)phosphine to 10 mM, concentrated by ultrafiltration, and stored at −80 °C. The purified yield of PTP1B was 33 mg/l cell culture; the yield of STEP was 16 mg/l cell culture.
SHP2 inhibitors were tested at RT in a 384-well plate format standard phosphatase fluorescence intensity assay using DiFMUP (Invitrogen/Thermo Fisher Scientific) as a substrate and a total reaction volume of 25 μl. SHP2 inhibitors or vehicle (DMSO) were spotted in triplicate into a black Greiner FLUOTRAC 200 384-well microplate (catalog no.: 781076; Greiner) for a 10-point dose–response assay using an Echo 555 Liquid Handler (Labcyte, Inc). PTP working solutions were prepared at a 0.625 nM concentration (for a final concentration of 0.5 nM) in buffer containing 50 mM Bis–Tris, pH 6.0, 50 mM NaCl, 5 mM DTT, and 0.01% Tween-20. Prior to the assay, a dually phosphorylated IRS-1 peptide (625 nM [500 nM final] ([30])) was added to full-length WT SHP2 working solutions and incubated for 20 min. DiFMUP working solutions at 5× final concentration were prepared in 50 mM Bis–Tris, pH 6.0, 50 mM NaCl, and 0.01% Tween-20. About 20 μl of PTP working solution was dispensed into the microplate and incubated with inhibitor for 20 min at RT. […] The reaction was initiated by addition of 5 μl DiFMUP working solutions. Fluorescence intensity was measured in kinetic mode (every minute for 7 or 10 min) using a Tecan Spark Multimode Microplate Reader (Tecan) with an excitation wavelength of 360 nm and an emission wavelength of 460 nm. The initial rates were determined from the linear progression curves of the PTP reaction. The nonenzymatic hydrolysis of the substrate was corrected by using a control without addition of enzyme. IC50 values were calculated from the corrected initial rates by nonlinear regression using the program GraphPad Prism, version 8 (GraphPad Software, Inc) software. Dose–response inhibition assays of SHP2cat using the substrate OMFP were performed similarly as described previously for DiFMUP. OMFP was used at a concentration corresponding to its Km value for SHP2cat (50 μM final). Fluorescence intensity was measured in kinetic mode (every minute for 10 min) using a Tecan Spark Multimode Microplate Reader with an excitation wavelength of 485 nm and an emission wavelength of 535 nm. […]

Compound: O=C(Nc1ccccc1)c1cc(-c2ccc(/C=C3\Sc4ccccc4C3=O)o2)ccc1O [SBI-4668, (Z)-2-Hydroxy-5-(5-((3-oxobenzo[b]thiophen-2(3H)-ylidene)methyl)furan-2-yl)-N-phenylbenzamide]
IC50: 53 µM | selectivity for SHP2 over STEP: 73 fold

Compound: O=C1/C(=C/c2ccc(-c3ccc(O)c(-c4nn[nH]n4)c3)o2)Sc2ccccc21 [SBI-3405, (Z)-2-((5-(4-Hydroxy-3-(2H-tetrazol-5-yl)phenyl)furan-2-yl)methylene)benzo[b]thiophen-3(2H)-one]
IC50: 7.7 µM

Compound: O=C1CCCC1=Cc1ccc(-c2ccc(O)c(C(=O)Nc3ccccc3)c2)o1 [SBI-3192, 2-Hydroxy-5-(5-((2-oxocyclopentylidene)methyl)furan-2-yl)-N-phenylbenzamide]
IC50: 27 µM

Further lines, results first:

IC50: 44 µM | selectivity for SHP2 over STEP: 200 fold
Compound: Nc1ccc(NC(=O)c2cc(-c3ccc(/C=C4\Sc5ccccc5C4=O)o3)ccc2O)cc1 [SBI-2130, (Z)-N-(4-Aminophenyl)-2-hydroxy-5-(5-((3-oxobenzo[b]thiophen-2(3H)-ylidene)methyl)furan-2-yl)benzamide]

selectivity for SHP2 over STEP: > 71 fold
Compound: N#Cc1cc(-c2ccc(/C=C3\Sc4ccccc4C3=O)o2)ccc1O [SBI-3404, (Z)-2-Hydroxy-5-(5-((3-oxobenzo[b]thiophen-2(3H)-ylidene)methyl)furan-2-yl)benzonitrile]
